2 compounds from article PMC5532363, “Synergistic blending of high-valued heterocycles inhibits growth of Plasmodium falciparum in culture and P. berghei infection in mouse model” (Scientific Reports, 2017) can be followed below.

A short description of series [1]: MTT cytotoxicity assay in U937 cells. It counts as cell-based. Conditions: human; for selectivity ratio at 24 h: U937 cells (CC50) versus 3D7 parasites (IC50), CC50 U937 / IC50 3D7, SI > 2 = low cytotoxicity, read-out: selectivity index (SI); for CC50 at 24 h: U937 cells, MTT. As to the method:
As a final step in the investigational pipeline, we determined the cytotoxic effect of the four active analogues (6a, 6h, 6m and 6u) in U937 cell lines by measuring 50% cytotoxic concentrations (CC50) and calculating selectivity indices (SIs) as a measure of toxicity in human cells.
Cytotoxicity of the 4 select Pht compounds on human cells was evaluated by assessing cell viability of the U937, a human acute monocyte leukemia cell lines by use of the MTT assay. U937 was acquired from American Type Culture Collection (ATCC, Rockville, MD) and maintained in RPMI 1640 medium supplemented with 10% fetal bovine serum, and Penicillin-streptomycin (1% v/v) (Gibco, UK) at 37 °C. Robust U937 cells at a concentration of 80,000 cells/ml were plated into 96-well plates and incubated for 24 hours. Six concentrations of the Pht compounds were added in a two-fold dilution from starting concentration of 50 to 1.56 µM in triplicate and incubated with the cells for 24 hours. This was followed by addition of 10 µL MTT solution (5 mg/mL) into each well, incubated for 4 hour at 37 °C followed by addition of 50 µL DMSO to dissolve the formazan precipitate according to manufacturer’s protocol. Aliquots were drawn from each well and color intensity was measured spectrophotometrically in an ELISA plate reader (Biotek, ELx800) at 540 nm. The cell viability ratio was calculated by the following formula: % cytotoxicity = [Mean OD of test cells] − [Mean OD of control cells]/[Mean OD of control cells] × 100. Viability counts were then plotted against corresponding drug concentrations to yield cytotoxicity (CC50) through non-linear regression (sigmoid dose-response/variable slope equation). Drug CC50 values were then used to define selectivity indices, which is a measure of drug safety in human relative to parasitic cells and was calculated as the ratio of the CC50 value determined on the U937 cells (cytotoxicity) and the IC50 value determined on parasite growth inhibition 3D7 (anti-plasmodial activity). In this study, we set SI > 2 as cut-off as an indicative of low drug cytotoxicity.
A general note: Tetrazolium assays rely on reduction of a dye to a coloured formazan, in cell work by metabolically active cells.

The test system of another series is P. falciparum 3D7. In words: Fixed-ratio isobologram drug interaction assay with CQ/DHA, 3D7. The conditions noted are these: Pf3D7. It counts as cell-based, Plasmodium falciparum. As to the method: (§1) A modified fixed-ratio isobologram method was used to assess interaction between CQ/DHA and Pht analogues. Briefly, a total of 5 solutions containing fixed-ratio mixtures of Pht derivatives with either CQ or DHA were prepared in the following ratios: 1:1, 2:1, 3:2, 2:3, and 1:4. The starting concentrations for ten 2 fold-serial dilutions across the microtiter plate were assigned so that the IC50 of each drug would be in the 5th serial dilution of the plate. Each drug was tested alone and at fixed ratios of its IC50. The assessment of drug interaction was based on the calculation of the fractional inhibitory concentration (FIC) of two drugs in the […]. FIC was calculated for each association by dividing the IC50 of the drug in the combination by the IC50 of the drug alone.

In a further series the test system is CQ resistant PfW2 strain. In words: SYBR Green I growth inhibition assay, P. falciparum W2 culture. It counts as cell-based. The conditions noted are these: Plasmodium falciparum. The source says:
(§2) Antimalarial activity of all the listed Pht analogues was initially assessed on asynchronous cultures of P. falciparum 3D7 (Pf3D7) clone using the SYBR Green assay. […] The mean IC50 values are based on three separate experiments (Table 1).
The laboratory-adapted P. falciparum strains 3D7 (Africa; CQ sensitive) and W2 (Africa; CQ resistant), were acquired from Malaria Research and Reference Reagent Resource Center (MR4) (Manassas, VA, USA) and maintained with type O +ve erythrocytes suspended in continuous complete culture medium as described. Complete culture media consisted of 10.43 g/litre of RPMI 1640-HEPES supplemented with 10% (vol/vol) human AB serum, 92.6 mg/litre L-glutamine, 50 mg/liter hypoxanthine, 2 g/litre sodium bicarbonate (Sigma-Aldrich, St. Louis, MO). Incubation of cultures was at 37 °C and maintained in a low oxygen atmosphere (5% O2, 5% CO2, 90% N). The levels of parasitemia in the cultures were maintained at between 2 and 10%, with 5% hematocrit. Media was changed after every 24 hours and parasitemia monitored every 48 hours. Synchronous cultures were prepared by sorbitol lysis. Stock solutions of the Pht, Pht analogues, and DHA were prepared in absolute dimethyl sulfoxide (DMSO) while CQ was prepared in distilled water. The prepared drug stock solutions were used immediately or stored at −80 °C for not longer than one month before use. Stock solutions were further diluted in serum free RPMI 1640 media (stock solution solvent final conc. 0.05%) before performing a 2-fold serial dilution to achieve dose ranges of 0.2 µM to 100 µM (Pht and derivatives), 7.8 to 2,000 nM (CQ) and 0.17 to 87.5 nM (DHA). 25 μL of the drug diluents were aliquoted into 96 well plates and used immediately. Alternatively, the stock solutions were diluted in distilled water, 2-fold serial dilution performed on a 96 well plate and allowed to air dry in a laminar flow hood after which dried plates were stored at 4 °C until use. SYBR Green I assay technique with additional modification was used for drug susceptibility testing of the parasites. Parasite cultures of >1% parasitemia were diluted to 1% parasitemia and 2% hematocrit and 200 μL were transferred onto drug pre-dosed plates and incubated at 37 °C for 90 hours, [40]. […] Relative fluorescence units (RFU) were read using the Perkin Elmer Wallac 1420 fluorescence plate reader, with excitation and emission wavelengths of 485 nm and 535 nm respectively. The readouts values were aligned with corresponding drug doses and analysis performed by Graph-pad Prism software. The drug concentrations (x value) were transformed using X = Log[X] and plotted against the counts (y values) and the data analysed by non-linear regression (sigmoid dose-response/variable slope equation) to yield the IC50.

Another series deals with P. falciparum W2. In words: Fixed-ratio isobologram drug interaction assay with CQ/DHA, W2. It counts as cell-based, Plasmodium falciparum. Conditions: PfW2. As to the method:
as §1

For series [2], the system named is synchronized Pf3D7 strain cultures (rings, trophozoites). In words: Stage-specificity and parasitemia titres on synchronized Pf3D7 cultures (Giemsa smears). In kind it is cell-based, Plasmodium falciparum. The conditions noted are these: for effect on ring stage parasitemia: 6 hours post exposure of ring stages; for effect on ring stage parasitemia / effect on mature blood stage parasite titres (parasitemia): Fig. 5; for effect on mature blood stage parasite titres (parasitemia): 16 hours after incubation with trophozoite stage; for effect on progression from trophozoites to schizonts / schizont morphology: concentration = individual IC50, up to 16 hours exposure; for effect on ring-stage growth and morphology: newly synchronized rings, concentration = individual IC50, monitored at 6 and 12 hours. The method, then: Next, we sought to determine stage-specificity of the antiplasmodial activity of the four active analogues (6a, 6h, 6m and 6u) on synchronized Pf3D7 strain cultures at 2% hematocrit and 1% parasitemia, with concentrations corresponding to individual drug IC50. To determine the effect of the compounds on both early and late ring stage parasites, the treatment was conducted on newly synchronized rings for 12 hours, and drug effect on parasite growth and morphology was monitored at 6 and 12 hours after exposure. Similarly, early trophozoites were exposed to each compound and incubated for 16 hours, and monitored at 6 and 16 hours post-exposure. The effect of the compounds on parasite morphology and development was compared in exposed and unexposed drug wells (Figs 3 and 4).
Figure 5 Effect of Pht analogues on parasite growth titres (Note: Graphical description of the inhibitory effect of select analogues on parasite growth titres 6 hours after incubation with ring-stages and 16 hours after drug incubation with trophozoite stage. Parasitemia percentage was derived by counting the number of infected erythrocytes from a total of 2,000 erythrocytes on Giemsa stained thin smears from each experiment. Bar diagrams represent the average of three different experiments).

Series [3] relates to P. falciparum 3D7 (Pf3D7), CQ sensitive. In words: SYBR Green I growth inhibition assay, asynchronous P. falciparum 3D7 culture. The conditions noted are these: SYBR Green, mean of three experiments, NDR / No IC50 = no dose response. It counts as cell-based, Plasmodium falciparum.
From the text: as §2
The laboratory-adapted P. falciparum strains 3D7 (Africa; CQ sensitive) and W2 (Africa; CQ resistant), were acquired from Malaria Research and Reference Reagent Resource Center (MR4) (Manassas, VA, USA) and maintained with type O +ve erythrocytes suspended in continuous complete culture medium as described. Complete culture media consisted of 10.43 g/litre of RPMI 1640-HEPES supplemented with 10% (vol/vol) human AB serum, 92.6 mg/litre L-glutamine, 50 mg/liter hypoxanthine, 2 g/litre sodium bicarbonate (Sigma-Aldrich, St. Louis, MO). Incubation of cultures was at 37 °C and maintained in a low oxygen atmosphere (5% O2, 5% CO2, 90% N). The levels of parasitemia in the cultures were maintained at between 2 and 10%, with 5% hematocrit. Media was changed after every 24 hours and parasitemia monitored every 48 hours. Synchronous cultures were prepared by sorbitol lysis. Stock solutions of the Pht, Pht analogues, and DHA were prepared in absolute dimethyl sulfoxide (DMSO) while CQ was prepared in distilled water. The prepared drug stock solutions were used immediately or stored at −80 °C for not longer than one month before use. Stock solutions were further diluted in serum free RPMI 1640 media (stock solution solvent final conc. 0.05%) before performing a 2-fold serial dilution to achieve dose ranges of 0.2 µM to 100 µM (Pht and derivatives), 7.8 to 2,000 nM (CQ) and 0.17 to 87.5 nM (DHA). 25 μL of the drug diluents were aliquoted into 96 well plates and used immediately. Alternatively, the stock solutions were diluted in distilled water, 2-fold serial dilution performed on a 96 well plate and allowed to air dry in a laminar flow hood after which dried plates were stored at 4 °C until use. SYBR Green I assay technique with additional modification was used for drug susceptibility testing of the parasites. Parasite cultures of >1% parasitemia were diluted to 1% parasitemia and 2% hematocrit and 200 μL were transferred onto drug pre-dosed plates and incubated at 37 °C for 90 hours, [40]. Drug exposure was terminated by freezing the drug plates at −80 °C for 24 hours after which lysis buffer containing (per liter) 100 mM Tris-HCl, 10 mM EDTA, 0.016% Saponin, 1.6% triton X-100 and 20X SYBR Green I dye was added and the sample incubated for 2 hours in the dark. Relative fluorescence units (RFU) were read using the Perkin Elmer Wallac 1420 fluorescence plate reader, with excitation and emission wavelengths of 485 nm and 535 nm respectively. The readouts values were aligned with corresponding drug doses and analysis performed by Graph-pad Prism software. The drug concentrations (x value) were transformed using X = Log[X] and plotted against the counts (y values) and the data analysed by non-linear regression (sigmoid dose-response/variable slope equation) to yield the IC50.

The mark [4] stands for this setting: Plasmodium falciparum, 3D7, Pf3D7, asynchronous culture, read-out: IC50 (SE) µg/mL.

The term CC50 denotes the concentration at which the toxic effect on the cells reaches its halfway point.

Where two headings read alike, the source gives them in different places.

For `CC(C)C[C@H](c1nc2ccccc2n1Cc1cn(-c2ccccc2)nn1)N1C(=O)c2ccccc2C1=O` [Compound 6a], in series [1], the selectivity ratio at 24 h came to 1.01 ± 1.5 and the CC50 at 24 h worked out at 910 ± 320 nM. The “interaction when combined with CQ and DHA” value with P. falciparum 3D7 is listed as “synergistic activity”. The IC50 in the series on CQ resistant PfW2 strain came to 700 nM. Also, the “interaction when combined with CQ and DHA” value in the series with P. falciparum W2 is reported as “synergistic activity”. For the same compound, in series [2], the “effect on ring stage parasitemia” value is reported as “reduction in ring stage parasitemia”; the “effect on mature blood stage parasite titres (parasitemia)” value is on record as “negligible”; the “effect on ring-stage growth and morphology” value was “active against ring-stage forms”. Further, in series [2] (early trophozoites), the “effect on progression from trophozoites to schizonts / schizont morphology” value was “did not interfere with development of parasite progression from trophozoites to schizonts”. In addition, in series [3] (setting [4]), the IC50 is 0.7 µg/mL.

For `CC(C)[C@H](c1nc2ccccc2n1Cc1cn(-c2ccc(F)cc2)nn1)N1C(=O)c2ccccc2C1=O` [Compound 6m], in series [1], the selectivity ratio at 24 h worked out at 1.11 ± 1.5. The compound further had a half-maximal cytotoxic concentration (CC50) at 24 h in series [1] of 780 ± 320 nM. The IC50 is 3800 nM in the series on CQ resistant PfW2 strain; 3.5 µM in series [3] (Pf3D7, asynchronous culture, read-out: IC50 (SE) µM); less than 5.14 µM in series [3] (Plasmodium falciparum, 3D7, Pf3D7, asynchronous culture, read-out: IC50 (SE) µM); 1.8 µg/mL in series [3] (setting [4]). Also, in series [2], the “effect on ring stage parasitemia” value is on record as “did not affect parasite growth”. Besides, the “effect on mature blood stage parasite titres (parasitemia)” value in series [2] is reported as “reduction in parasitemia”. Moreover, the effect on trophozoites result in series [2] (early trophozoites, concentration = individual IC50, 6 hours after exposure) is listed as “trophozoite growth did not appear to be affected”. In addition, the “effect on progression from trophozoites to schizonts / schizont morphology” value in series [2] (early trophozoites) is “schizonts appeared less granular and lacked distinguishable merozoites”. Also, in series [2], the “effect on ring-stage growth and morphology” value is listed as “did not arrest ring-stage maturation”.
